Reference: the supplement of paper PMC10883282
± gives the standard deviation of the averaged measurements.

How the values were obtained:
Test in all cases: relative viability vs DMSO control (72 h) (fraction); higher = more viable cells
[1] = system: G401
In short: (§1)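 Densities for seeding sarcoma cell lines into 384-well plates were set to give 80–90% confluence. After 24 h, 2.5 µl of serially diluted compound from source plates of 10 mM to 0.0002 mM went in, and plates stayed 72 h at 37 °C in 5% CO2 with 0.1% DMSO vehicle and a 5 µM positive control. Percent growth from ATPLite readings, averaged over up to triplicate wells, served as relative viability, rescaled so 1 means full and 0 means none.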

[2] = system: HT1080
In short: as §1

[3] = system: KHOS-NP
In short: as §1

[4] = system: MES-SA
In short: as §1

[5] = system: RD-ES
In short: as §1

[6] = system: RD
In short: as §1

[7] = system: SK-ES-1
In short: as §1

[8] = system: SK-LMS-1
In short: as §1

[9] = system: SW1353
In short: as §1

[10] = system: SW684
In short: as §1

[11] = system: SW872
In short: as §1

[12] = system: VA-ES-BJ
In short: as §1

Cc1nc(Nc2ncc(C(=O)Nc3c(C)cccc3Cl)s2)cc(N2CCN(CCO)CC2)n1 [Dasatinib]
Conditions | relative viability
[1], 0.00017 µM | 1 ± 0.044
[1], 0.00051 µM | 0.996 ± 0.022
[1], 0.00152 µM | 1.015 ± 0.0069
[1], 0.00457 µM | 1 ± 0.019
[1], 0.01372 µM | 0.959 ± 0.046
[1], 0.04115 µM | 0.876 ± 0.069
[1], 0.1235 µM | 0.833 ± 0.065
[1], 0.3704 µM | 0.789 ± 0.03
[1], 1.111 µM | 0.7831 ± 0.0071
[1], 3.333 µM | 0.69 ± 0.014
[1], 10 µM | 0.391 ± 0.017
[2], 0.00017 µM | 1.03 ± 0.011
[2], 0.00051 µM | 1.05 ± 0.049
[2], 0.00152 µM | 1.04 ± 0.025
[2], 0.00457 µM | 1.01 ± 0.015
[2], 0.01372 µM | 1.02 ± 0.0092
[2], 0.04115 µM | 0.989 ± 0.027
[2], 0.1235 µM | 0.924 ± 0.026
[2], 0.3704 µM | 0.895 ± 0.029
[2], 1.111 µM | 0.907 ± 0.018
[2], 3.333 µM | 0.873 ± 0.017
[2], 10 µM | 0.535 ± 0.046
[3], 0.00017 µM | 1.023 ± 0.0082
[3], 0.00051 µM | 1.03 ± 0.015
[3], 0.00152 µM | 1 ± 0.024
[3], 0.00457 µM | 0.993 ± 0.04
[3], 0.01372 µM | 0.923 ± 0.034
[3], 0.04115 µM | 0.872 ± 0.022
[3], 0.1235 µM | 0.721 ± 0.044
[3], 0.3704 µM | 0.525 ± 0.028
[3], 1.111 µM | 0.436 ± 0.015
[3], 3.333 µM | 0.327 ± 0.014
[3], 10 µM | 0.237 ± 0.013
[4], 0.00017 µM | 0.935 ± 0.021
[4], 0.00051 µM | 0.919 ± 0.036
[4], 0.00152 µM | 0.903 ± 0.033
[4], 0.00457 µM | 0.91 ± 0.017
[4], 0.01372 µM | 0.879 ± 0.03
[4], 0.04115 µM | 0.825 ± 0.028
[4], 0.1235 µM | 0.799 ± 0.02
[4], 0.3704 µM | 0.791 ± 0.011
[4], 1.111 µM | 0.8428 ± 0.0062
[4], 3.333 µM | 0.728 ± 0.013
[4], 10 µM | 0.258 ± 0.0097
[5], 0.00017 µM | 0.989 ± 0.026
[5], 0.00051 µM | 0.966 ± 0.03
[5], 0.00152 µM | 0.966 ± 0.015
[5], 0.00457 µM | 0.962 ± 0.013
[5], 0.01372 µM | 0.958 ± 0.023
[5], 0.04115 µM | 0.949 ± 0.019
[5], 0.1235 µM | 0.9274 ± 0.0062
[5], 0.3704 µM | 0.918 ± 0.031
[5], 1.111 µM | 0.92 ± 0.049
[5], 3.333 µM | 0.759 ± 0.097
[5], 10 µM | 0.483 ± 0.024
[6], 0.00017 µM | 1.12 ± 0.095
[6], 0.00051 µM | 1.12 ± 0.074
[6], 0.00152 µM | 1.09 ± 0.032
[6], 0.00457 µM | 1.02 ± 0.025
[6], 0.01372 µM | 0.953 ± 0.054
[6], 0.04115 µM | 0.775 ± 0.03
[6], 0.1235 µM | 0.536 ± 0.017
[6], 0.3704 µM | 0.458 ± 0.032
[6], 1.111 µM | 0.426 ± 0.015
[6], 3.333 µM | 0.366 ± 0.0042
[6], 10 µM | 0.267 ± 0.0099
[7], 0.00017 µM | 1.04 ± 0.021
[7], 0.00051 µM | 1.03 ± 0.03
[7], 0.00152 µM | 1.038 ± 0.005
[7], 0.00457 µM | 1.05 ± 0.051
[7], 0.01372 µM | 1.02 ± 0.037
[7], 0.04115 µM | 0.975 ± 0.028
[7], 0.1235 µM | 0.993 ± 0.021
[7], 0.3704 µM | 0.934 ± 0.064
[7], 1.111 µM | 0.896 ± 0.058
[7], 3.333 µM | 0.673 ± 0.069
[7], 10 µM | 0.402 ± 0.0061
[8], 0.00017 µM | 1.03 ± 0.054
[8], 0.00051 µM | 1.06 ± 0.014
[8], 0.00152 µM | 1.09 ± 0.07
[8], 0.00457 µM | 1.04 ± 0.017
[8], 0.01372 µM | 1.03 ± 0.048
[8], 0.04115 µM | 0.895 ± 0.037
[8], 0.1235 µM | 0.722 ± 0.015
[8], 0.3704 µM | 0.623 ± 0.0083
[8], 1.111 µM | 0.611 ± 0.011
[8], 3.333 µM | 0.656 ± 0.024
[8], 10 µM | 0.4228 ± 0.0032
[9], 0.00017 µM | 0.979 ± 0.03
[9], 0.00051 µM | 0.982 ± 0.029
[9], 0.00152 µM | 0.996 ± 0.034
[9], 0.00457 µM | 0.956 ± 0.018
[9], 0.01372 µM | 0.888 ± 0.027
[9], 0.04115 µM | 0.704 ± 0.04
[9], 0.1235 µM | 0.59 ± 0.034
[9], 0.3704 µM | 0.46 ± 0.032
[9], 1.111 µM | 0.4271 ± 0.0015
[9], 3.333 µM | 0.411 ± 0.016
[9], 10 µM | 0.372 ± 0.0055
[10], 0.00017 µM | 1.166 ± 0.01
[10], 0.00051 µM | 1.15 ± 0.018
[10], 0.00152 µM | 1.18 ± 0.037
[10], 0.00457 µM | 1.18 ± 0.016
[10], 0.01372 µM | 1.15 ± 0.02
[10], 0.04115 µM | 1 ± 0.013
[10], 0.1235 µM | 0.739 ± 0.021
[10], 0.3704 µM | 0.625 ± 0.024
[10], 1.111 µM | 0.6057 ± 0.004
[10], 3.333 µM | 0.619 ± 0.0096
[10], 10 µM | 0.457 ± 0.0087
[11], 0.00017 µM | 1.03 ± 0.017
[11], 0.00051 µM | 1.02 ± 0.033
[11], 0.00152 µM | 1.01 ± 0.048
[11], 0.00457 µM | 0.957 ± 0.056
[11], 0.01372 µM | 0.86 ± 0.046
[11], 0.04115 µM | 0.779 ± 0.023
[11], 0.1235 µM | 0.639 ± 0.035
[11], 0.3704 µM | 0.551 ± 0.034
[11], 1.111 µM | 0.521 ± 0.029
[11], 3.333 µM | 0.481 ± 0.048
[11], 10 µM | 0.359 ± 0.012
[12], 0.00017 µM | 1.04 ± 0.054
[12], 0.00051 µM | 1.04 ± 0.051
[12], 0.00152 µM | 1.04 ± 0.067
[12], 0.00457 µM | 0.996 ± 0.057
[12], 0.01372 µM | 0.856 ± 0.047
[12], 0.04115 µM | 0.688 ± 0.013
[12], 0.1235 µM | 0.502 ± 0.037
[12], 0.3704 µM | 0.447 ± 0.0063
[12], 1.111 µM | 0.413 ± 0.019
[12], 3.333 µM | 0.335 ± 0.038
[12], 10 µM | 0.246 ± 0.0048
